According to patent publication US20220267276A1, “NLRP MODULATORS” (Novartis AG, priority 2018, published 2022):

How the values were obtained:
[1] = tested on: IL-1β production in PMA-differentiated THP-1 cells; experiment: IL-1β production in PMA-differentiated THP-1 cells stimulated with gramicidin (hTHP-1 assay, 2% fetal bovine serum); type: cell-based, human
Experimental: THP-1 cells were purchased from the American Type Culture Collection and sub-cultured according to instructions from the supplier. Cells were cultured in complete RPMI 1640 (containing 10% heat inactivated FBS, penicillin (100 units/ml) and streptomycin (100 μg/ml)), and maintained in log phase prior to experimental setup. Prior to the experiment, compounds were dissolved in dimethyl sulfoxide (DMSO) to generate a 30 mM stock. The compound stock was first pre-diluted in DMSO to 3, 0.34, 0.042 and 0.0083 mM intermediate concentrations and subsequently spotted using Echo550 liquid handler into an empty 384-well assay plate to achieve desired final concentration (e.g. 100, 33, 11, 3,7, 1.2, 0.41, 0.14, 0.046, 0.015, 0.0051, 0.0017 μM). DMSO was backfilled in the plate to achieve a final DMSO assay concentration of 0.37%. The plate was then sealed and stored at room temperature until required. THP-1 cells were treated with PMA (Phorbol 12-myristate 13-acetate) (20 ng/ml) for 16-18 hours. On the day of the experiment the media was removed and adherent cells were detached with trypsin for 5 minutes. Cells were then harvested, washed with complete RPMI 1640, spun down, and resuspended in RPMI 1640 (containing 2% heat inactivated FBS, penicillin (100 units/ml) and streptomycin (100 μg/ml). The cells were plated in the 384-well assay plate containing the spotted compounds at a density of 50,000 cells/well (final assay volume 50 μl). Ceils were incubated with compounds for 1 hour and then stimulated with gramicidin (5 μM) (Enzo) for 2 hours. Plates were then centrifuged at 340 g for 5 min. Cell free supernatant (40 μL) was collected using a 96-channel PlateMaster (Gilson) and the production of IL-1β was evaluated by HTRF (cisbio). The plates were incubated for 18 h at 4° C. and read using the preset HTRF program (donor emission at 620 nm, acceptor emission at 668 nm) of the SpectraMax i3x spectrophotometer (Molecular Devices, software SoftMax 6). A vehicle only control and a dose titration of CRID3 (100-0.0017 μM) were run concurrently with each experiment. Data was normalized to vehicle-treated samples (equivalent to 0% inhibition) and CRID3 at 100 μM (equivalent to 100% inhibition).
Procedure 2: IL-1β Production in PMA-Differentiated THP-1 Cells Stimulated with Gramicidin
THP-1 cells were purchased from the American Type Culture Collection and sub-cultured according to instructions from the supplier. Prior to experiments, cells were cultured in complete RPMI 1640 (containing 10% heat inactivated FBS, penicillin (100 units/ml) and streptomycin (100 μg/ml)), and maintained in log phase prior to experimental setup. Prior to the experiment THP-1 were treated with PMA (Phorbol 12-myristate 13-acetate) (20 ng/mi) for 16-18 hours. Compounds were dissolved in dimethyl sulfoxide (DMSO) to generate a 30 mM stock. On the day of the experiment the media was removed and adherent cells were detached with trypsin for 5 minutes. Cells were then harvested, washed with complete RPMI 1640, spun down, resuspended in RPMI 1640 (containing 2% heat inactivated FBS, penicillin (100 units/ml) and streptomycin (100 μg/ml), The cells were plated in a 384-well plate at a density of 50,000 cells/well (final assay volume 50 μl). Compounds were first dissolved in assay medium to obtain a 5× top concentration of 500 μM. 10 step dilutions (1:3) were then undertaken in assay medium containing 1.67% DMSO. 5× compound solutions were added to the culture medium to achieve desired final concentration (e.g. 100, 33, 11, 3.7, 1.2, 0.41, 0.14, 0.046, 0.015, 0.0051, 0.0017 μM). Final DMSO concentration was at 0.37%. Cells were incubated with compounds for 1 hour and then stimulated with gramicidin (5 μM) (Enzo) for 2 hours. Plates were then centrifuged at 340 g for 5 min. Cell free supernatant (40 μL) was collected using a 96-channel PlateMaster (Gilson) and the production of IL-1β was evaluated by HTRF (cisbio). […]

[2] = Colon pharmacokinetics in mice; type: in vivo; details: colon to plasma concentration ratio at 8 h time point, 30 mg/kg oral gavage in 0.5% methyl-cellulose, Male C57BL/6 Mouse; for Kp at 8 h: read-out: Mouse TD Colon/Plasma @ 8
Experimental: Assay 2: Colon Pharmacokinetics in Mice
The test compound was formulated in 0.5% methyl-cellulose in water and dosed via oral gavage at 30 mg/kg to Male C57BL/6 Mouse. At various time points (typically 15 min, 30 min, 1, 2, 4, 6 and 8 h) post dosing, blood samples were removed via cardiac […] puncture and intact colons were excised from the […]. Blood samples were centrifuged at 1500 x g for 15 min to collect plasma. At the terminal time point each individual animal is anaesthetized, abdominal cavity is opened and from 2 cm below the caecum a 4 cm sample of the colon is dissected, cut open on the longitudinal axis and the solid contents removed by flushing with 2 mL of physiological fluid. The colon was further washed by putting it in 5 mL of physiological saline and shaken for 1 minute. The colon was pet dry weighed and transferred in 2 mL tubes. Colon will be weighted and homogenized with water by tissue weight (g) to water volume (mL) at ratio 1:3 before analysis. The actual concentration is the detected value multiplied by the dilution factor. A colon to plasma ratio was determined as the ratio of the colon cone, to the plasma cone, in pg hr/g, at 8 h time point.

[3] = Homo sapiens, THP-1, average IC50, hTHP-1 assay containing 2% fetal bovine serum, class symbols
[4] = Homo sapiens, THP-1, average IC50, hTHP-1 assay containing 2% fetal bovine serum, given as numeric bound
[5] = average IC50, hTHP-1 assay containing 2% fetal bovine serum, class symbols

Row | SMILES | IC50 [1, 3] [nM] | other results
1 | CNS(=O)(=O)c1ccc(S(=O)(=O)NC(=O)Nc2c(C(C)C)cc(C#N)cc2C(C)C)c(CO)c1 [Compound 116] | 200 to 1000 | Mouse TD Colon/Plasma @ 8 [2]: 18,645
2 | Cc1cc(C(=O)NCCc2ccc(S(=O)(=O)NC(=O)Nc3c4c(cc5c3CCC5)CCC4)cc2)no1 [Compound 303] | – | IC50 [1, 4]: > 30000 nM
3 | CC(C)(O)c1nc(CO)c(S(=O)(=O)NC(=O)Nc2c3c(c(C#N)c4c2CCC4)CCC3)s1 [Compound 122] | 1000 to 5000 | Kp at 8 h [2]: 3530
4 | CC(C)(O)c1nc(CO)c(S(=O)(=O)NC(=O)Nc2c3c(nc4c2CCC4(C)C)CCC3)s1 [Compound 201] | 200 to 1000 | –
5 | CNS(=O)(=O)c1ccc(S(=O)(=O)NC(=O)Nc2c(C(C)C)cncc2C(C)C)c(CO)c1 [Compound 105] | 1000 to 5000 | –
6 | COC(=O)c1sc2c(c1NC(=O)NS(=O)(=O)c1ncc(C(C)(C)O)s1)CCCC2 [Compound 304] | 5000 to 30000 | –
7 | CC(C)c1cncc(C(C)C)c1NC(=O)NS(=O)(=O)c1sc(C(C)(C)O)nc1CO [Compound 104] | 1000 to 5000 | –
8 | CNS(=O)(=O)c1ccc(S(=O)(=O)NC(=O)Nc2c(C(C)C)cc(C#N)c(F)c2C(C)C)c(OC)c1 [Compound 118] | – | IC50 [1, 5]: 200 to 1000 nM; Kp at 8 h [2]: 5950
9 | CNS(=O)(=O)c1ccc(S(=O)(=O)NC(=O)Nc2c3c(nc4c2CCC4)CCC3)c(OC)c1 [Compound 108] | 1000 to 5000 | –
10 | CNS(=O)(=O)c1ccc(S(=O)(=O)NC(=O)Nc2c3c(cc4c2CCC4)CCC3)c(O)c1 [Compound 124] | 5000 to 30000 | Kp at 8 h [2]: 26
11 | CC(C)c1cc2c(c(C(C)C)c1NC(=O)NS(=O)(=O)c1sc(C(C)(C)O)nc1CO)COC2 [Compound 106] | 200 to 1000 | –
12 | CNS(=O)(=O)c1ccc(S(=O)(=O)NC(=O)Nc2c(C(C)C)cc(C#N)cc2C(C)C)c(O)c1 [Compound 119] | 40 to 200 | –
13 | CCC(C)c1cc(C#N)c(F)c(C(C)C)c1NC(=O)NS(=O)(=O)c1sc(C(C)(C)O)nc1CO (stereo not shown) [Compound 113] | 200 to 1000 | Kp at 8 h [2]: 4560
14 | CNS(=O)(=O)c1ccc(S(=O)(=O)NC(=O)Nc2c(C(C)C)cc(C#N)cc2C(C)C)c(C(=O)OC)c1 [Compound 115] | 5000 to 30000 | –
15 | CNS(=O)(=O)c1ccc(S(=O)(=O)NC(=O)Nc2c(C(C)C)cncc2C(C)C)cc1CO [Compound 109] | 1000 to 5000 | –
16 | CNS(=O)(=O)c1ccc(S(=O)(=O)NC(=O)Nc2c(C(C)C)cc(C#N)c(F)c2C(C)C)c(OC)c1 [Compound 120] | – | IC50 [1, 5]: 40 to 200 nM

Row | SMILES | IC50 [1, 3] [nM] | other results
17 | CC(C)c1cc(C#N)cc(C(C)C)c1NC(=O)NS(=O)(=O)c1sc(C(C)(C)O)nc1CO [Compound 101] | 200 to 1000 | Kp at 8 h [2]: 3000
18 | CNS(=O)(=O)c1ccc(S(=O)(=O)NC(=O)Nc2c3c(nc4c2CCC4C)CCC3)c(CO)c1 (stereo not shown) [Compound 203] | 1000 to 5000 | –
19 | CC(C)c1cc(C#N)cc(CCO)c1NC(=O)NS(=O)(=O)c1sc(C(C)(C)O)nc1CO [Compound 114] | 5000 to 30000 | –
20 | CC(C)c1nc(-c2cccc(C(F)(F)F)c2)c(F)c(C(C)C)c1NC(=O)NS(=O)(=O)c1sc(C(C)(C)O)nc1CO[Si](C)(C)C(C)(C)C [Compound 107] | – | IC50 ([1]; Homo sapiens, THP-1): 1000 to 5000 nM
21 | CNS(=O)(=O)c1ccc(S(=O)(=O)NC(=O)Nc2c(C(C)C)cc(C#N)c(F)c2C(C)C)c(O)c1 [Compound 117] | 40 to 200 | –
22 | CC(C)c1cc(C#N)c(F)c(C(C)C)c1NC(=O)NS(=O)(=O)c1cc(C(C)(C)O)no1 [Compound 301] | 200 to 1000 | –
23 | CNS(=O)(=O)c1ccc(S(=O)(=O)NC(=O)Nc2c3c(nc4c2CCC4)CCC3)c(CO)c1 [Compound 103] | 200 to 1000 | –
24 | CC(C)c1cc(C#N)c(F)c(C(C)C)c1NC(=O)NS(=O)(=O)c1sc(C(C)(C)O)nc1CO [Compound 123] | 200 to 1000 | Mouse TD Colon/Plasma @ 8 [2]: 12,731
25 | CC(C)c1c(F)c(C#N)cc(C2CCOCC2)c1NC(=O)NS(=O)(=O)c1sc(C(C)(C)O)nc1CO [Compound 204] | – | IC50 [1, 4]: > 15000 nM
26 | CC1CCc2c1nc1c(c2NC(=O)NS(=O)(=O)c2sc(C(C)(C)O)nc2CO)CCC1 (stereo not shown) [Compound 202] | 200 to 1000 | –
27 | O=C(CCCC[C@@H]1SC[C@@H]2NC(=O)N[C@@H]21)NCCCn1cc(CCC(=O)Nc2cccc(S(=O)(=O)NC(=O)Nc3c4c(cc5c3CCC5)CCC4)c2)nn1 [Compound 324] | – | IC50 [1, 4]: > 30000 nM
28 | CC(C)c1cc(C#N)c(F)c(C(C)C)c1NC(=O)NS(=O)(=O)c1sc(C(C)(C)O)nc1CCO [Compound 102] | 40 to 200 | Kp at 8 h [2]: 802
29 | CC(C)(O)c1nc(CO)c(S(=O)(=O)NC(=O)Nc2c3c(nc4c2CCC4)CCC3)s1 [Compound 111] | 1000 to 5000 | –
30 | CC(C)c1c(F)c(C#N)cc(C2CCOCC2)c1NC(=O)NS(=O)(=O)c1sc(C(C)(C)O)nc1CO [Compound 112] | 1000 to 5000 | –
31 | CC(C)c1cc(C#N)cc(C2CC2)c1NC(=O)NS(=O)(=O)c1sc(C(C)(C)O)nc1CO [Compound 121] | 1000 to 5000 | –
32 | Cc1cc(C(=O)NCCc2ccc(S(=O)(=O)NC(=O)Nc3c(C(C)C)cc(C#N)cc3C(C)C)cc2)no1 [Compound 302] | – | IC50 [1, 4]: > 30000 nM
